In patent US20220324913A1, “ANTIGENIC NEURON SPECIFIC ENOLASE PEPTIDES FOR DIAGNOSING AND TREATING AUTISM” (THE REGENTS OF THE UNIVERSITY OF CALIFORNIA, priority 2019, published 2022):

Columns and labels:
maternal autoantibodies = experiment: Western blot of recombinant proteins probed with maternal plasma; type: binding, human; details: compared with NNE, ALDOC and CKB; plasma 1:800
Protocol: To test autoantibody reactivity to FMB Fraction #12 that contained proteins between 37-45 kDa, the fraction was probed with maternal plasma samples as described previously (FIG. 1D). In summary, 200 μg of protein were denatured by heating at 100° C. for 10 min in SDS buffer and separated on a 12% SDS-PAGE gel at 200V for 1 hour. Proteins were transferred to a 0.2 μm nitrocellulose membrane overnight (10V for 16 hours) at 4° C. To confirm the transfer, the membrane was stained with Ponceau dye and cut into 3 mm strips that were labeled and blocked with 1% casein buffer. Plasma samples were then diluted (1:400), added to the strips, incubated for 1.5 hours at RT followed by five washes, and incubated with 1:20,000 goat anti-human IgG-HRP for 30 minutes. After five washes, detection was performed by adding 800 μl of Super Signal substrate and strips were placed on a glass plate to be imaged using the FluoroChem 8900 imager. Images were scored as 0 if negative and 1 if positive.
The top 4 commercially available antigens identified by mass spectrometry with a 100 C.I. were selected for further evaluation. To evaluate antibody reactivity against our top hits including NSE, NNE, ALDOC, and CKB, 2 μg protein of recombinant protein (Novus Biologicals, Littleton, Colo.) were probed with diluted maternal plasma (1:800) by WB as described previously. […]

[1] = tested on: maternal autoantibodies (plasma from mothers of ASD and TD children); experiment: ELISA of maternal plasma reactivity to recombinant NSE; type: binding, human; details: for Reactivity observed, number of mothers: plasma 1:500
Protocol: Once NSE was identified as a viable antigenic candidate by WB, we evaluated a larger sample set for NSE reactivity using an ELISA method. We tested plasma from 418 mothers enrolled in the CHARGE study with at least one child with ASD (n=232) or control samples from mothers of typically developing children (TD; n=186). Microtiter plates were coated with 100 μl of NSE (Novus Biologicals, Littleton, Colo.) at 2 μg/ml in carbonate coating buffer pH 9.6, incubated overnight at 4° C., washed four times with PBST 0.05%, and blocked with 2% Super Block (Thermo Scientific, Rockford, Ill.) for 1 hour at room temperature (RT). The plasma samples were diluted 1:500 and run in duplicate. Following dilution, 100 μl of diluted sample was added to each well, incubated for 1.5 hours, washed 4×, then incubated with 1:10,000 goat anti-human IgG-HRP IgG (Kirkegaard & Perry Laboratories, Inc., Gaithersburg, Mass.) for 1 hour. The plates were then washed and detection was performed by adding 100 μl of BD optEIA liquid substrate for ELISA (BD Biosciences, San Jose, Calif.). After 4 minutes, the reaction was stopped with 50 μl of 2N HCl. The absorbance was measured at 490-450 nm using an iMark Microplate Absorbance Reader (Biorad, Hercules, Calif., USA).
For the ELISA assay, positive cutoff values for reactivity to NSE were determined using a ROC curve. The ROC curve was created by plotting the true positive rate against the false positive rate at various threshold settings. We therefore created our curve using seven positive samples (labeled as +) from mothers that have a child with ASD and were positive by WB (true positive samples) along with the test samples. By using the positive samples as the reference event, the cutoff has greater specificity (less false positives) although sacrificing some sensitivity (limit of detection). The ROC plots sensitivity versus 1−Specificity for each value creating an Area Under the Curve (AUC) that is a representation of the accuracy of the test. Youden's index was used to calculate the cutoff.
NSE was identified by mass spectrometry as a potential target of the maternal autoantibodies and, based on its critical role in neurodevelopment, we chose to further evaluate NSE as a potential MAR ASD biomarker. Recombinant NSE was used to verify maternal autoantibody reactivity first by WB followed by ELISA. […] Therefore, we utilized an approach similar to that used for the seven previously-described MAR autoantigens to probe the samples for differential epitope recognition between ASD and TD groups.

NSE: recombinant neuron specific enolase protein (Novus Biologicals), target autoantigen of maternal autoantibodies
Maternal autoantibody reactivity against recombinant protein (maternal autoantibodies): greatest specificity | Reactivity observed, percent of mothers ([1]; mothers that had a child with ASD): 6.2% | Reactivity observed, percent of mothers ([1]; mothers that have a typically developing child (TD)): 5% | Reactivity observed, number of mothers ([1]; of 186 mothers that have a typically developing child): 21 | Reactivity observed, number of mothers ([1]; of the 232 mothers that had a child with ASD): 26
